Read-outs that look alike come from different tables or passages of the source.

We go through 33 compounds from patent publication US20240336574A1 (LATIGO BIOTHERAPEUTICS, INC., priority 2021, published 2024).

The target of the test is T1, recombinant human NaV1.8 stably transfected HEK cells (Homo sapiens, UniProt Q9Y5Y9).
T1 construct: expressed in transfected cells; host or cells: HEK cells, stably transfected
The experiment in a line: Compound profiling on NaV1.8, human NaV1.8 cell line, SyncroPatch384PE automated patch clamp assay (Example 115, third set of compounds, Table 27). Format: cell-based. Particulars: human NaV1.8 HEK cells, Table 27 (third set of compounds). The protocol:
Compound Profiling on NaV1.8 Human NaV1.8 Cell Line SyncroPatch384PE Assay
Compounds were tested on recombinant human NaV1.8 stably transfected HEK cells using the SyncroPatch384PE system, an automated patch clamp device. Cells were cultured at 37° C./5% CO2 in DMEM medium supplemented with GlutaMAX I, NEAA 1%, FBS 10% and seeded in T175 flasks. Cells were cultured at 30° C. one day prior to recording sodium currents. On the day of the recordings, cells were detached with 0.05% Trypsin-EDTA, resuspended in serum free DMEM medium and placed into the SyncroPatch384PE 6° C. pre-cooled cell hotel and shaken at 200 rpm. Intracellular solution (IC) contained, in mM: 10, CsCl; 110, CsF; 20, EGTA; 10, HEPES. Extracellular solution (EC) contained, in mM: 140, NaCl; 4, KCl; 5, Glucose; 10, HEPES; 2, CaCl2; 1, MgCl2. Washing solution contained, in mM: 40, NMDG; 100, NaCl; 4, KCl; 10, Glucose; 10, HEPES; 5, CaCl2; 1, MgCl2.
Compounds were tested in quadruplicates in 0.1% DMSO and 0.030% Pluronic Acid. Compounds were diluted 1:3.33 in EC solution to create a 10-point concentration response curve, spanning a final concentration range from 10-0.0002 μM in the assay plate. Compounds with low nM potency were retested using a lower concentration range (1-0.00002 μM). Each plate contained tetracaine and another tool compound as positive controls. Up to 7 compounds were tested on one plate. 150 μM tetracaine and 0.1% DMSO were used as high and low controls, respectively.
Whole cell patch clamp recordings were conducted according to Nanion's standard procedure for SyncroPatch384PE®. Cells were held at a holding potential of −120 mV. A depolarization step to 10 mV for 30 ms was applied (P1 measurement), followed by a hyperpolarization step to −100 mV for 100 ms. An inactivation step at −40 mV for 10 sec was applied before stepping to −100 mV for 20 ms, followed by a step to 10 mV for 30 ms (P2 measurement) and then back to −100 mV for 30 ms. Sweep interval was 15 sec with a sampling rate of 10 kHz. Following establishment of the whole-cell configuration in EC, two washing steps with reference buffer were performed to stabilize the baseline. Compounds were then applied by the SynchroPatch into each well and the current was recorded for five minutes in EC, followed by application of tetracaine to achieve full block at the end of the experiment. The potency of the compounds was assessed on two read-outs, resting state block (P1 measurement) or inactivated state block (P2 measurement) to obtain IC50 values. Values were normalized to high (tetracaine) and low (DMSO) controls.
For orientation: In patch-clamp work, channel activity is measured electrically.

Setting [1] is: inactivated state block (P2 measurement), read-out: P2 IC50.
Where [2] appears, read: resting state block (P1 measurement), read-out: P1 IC50.

T1 sequence (Q9Y5Y9 whole entry): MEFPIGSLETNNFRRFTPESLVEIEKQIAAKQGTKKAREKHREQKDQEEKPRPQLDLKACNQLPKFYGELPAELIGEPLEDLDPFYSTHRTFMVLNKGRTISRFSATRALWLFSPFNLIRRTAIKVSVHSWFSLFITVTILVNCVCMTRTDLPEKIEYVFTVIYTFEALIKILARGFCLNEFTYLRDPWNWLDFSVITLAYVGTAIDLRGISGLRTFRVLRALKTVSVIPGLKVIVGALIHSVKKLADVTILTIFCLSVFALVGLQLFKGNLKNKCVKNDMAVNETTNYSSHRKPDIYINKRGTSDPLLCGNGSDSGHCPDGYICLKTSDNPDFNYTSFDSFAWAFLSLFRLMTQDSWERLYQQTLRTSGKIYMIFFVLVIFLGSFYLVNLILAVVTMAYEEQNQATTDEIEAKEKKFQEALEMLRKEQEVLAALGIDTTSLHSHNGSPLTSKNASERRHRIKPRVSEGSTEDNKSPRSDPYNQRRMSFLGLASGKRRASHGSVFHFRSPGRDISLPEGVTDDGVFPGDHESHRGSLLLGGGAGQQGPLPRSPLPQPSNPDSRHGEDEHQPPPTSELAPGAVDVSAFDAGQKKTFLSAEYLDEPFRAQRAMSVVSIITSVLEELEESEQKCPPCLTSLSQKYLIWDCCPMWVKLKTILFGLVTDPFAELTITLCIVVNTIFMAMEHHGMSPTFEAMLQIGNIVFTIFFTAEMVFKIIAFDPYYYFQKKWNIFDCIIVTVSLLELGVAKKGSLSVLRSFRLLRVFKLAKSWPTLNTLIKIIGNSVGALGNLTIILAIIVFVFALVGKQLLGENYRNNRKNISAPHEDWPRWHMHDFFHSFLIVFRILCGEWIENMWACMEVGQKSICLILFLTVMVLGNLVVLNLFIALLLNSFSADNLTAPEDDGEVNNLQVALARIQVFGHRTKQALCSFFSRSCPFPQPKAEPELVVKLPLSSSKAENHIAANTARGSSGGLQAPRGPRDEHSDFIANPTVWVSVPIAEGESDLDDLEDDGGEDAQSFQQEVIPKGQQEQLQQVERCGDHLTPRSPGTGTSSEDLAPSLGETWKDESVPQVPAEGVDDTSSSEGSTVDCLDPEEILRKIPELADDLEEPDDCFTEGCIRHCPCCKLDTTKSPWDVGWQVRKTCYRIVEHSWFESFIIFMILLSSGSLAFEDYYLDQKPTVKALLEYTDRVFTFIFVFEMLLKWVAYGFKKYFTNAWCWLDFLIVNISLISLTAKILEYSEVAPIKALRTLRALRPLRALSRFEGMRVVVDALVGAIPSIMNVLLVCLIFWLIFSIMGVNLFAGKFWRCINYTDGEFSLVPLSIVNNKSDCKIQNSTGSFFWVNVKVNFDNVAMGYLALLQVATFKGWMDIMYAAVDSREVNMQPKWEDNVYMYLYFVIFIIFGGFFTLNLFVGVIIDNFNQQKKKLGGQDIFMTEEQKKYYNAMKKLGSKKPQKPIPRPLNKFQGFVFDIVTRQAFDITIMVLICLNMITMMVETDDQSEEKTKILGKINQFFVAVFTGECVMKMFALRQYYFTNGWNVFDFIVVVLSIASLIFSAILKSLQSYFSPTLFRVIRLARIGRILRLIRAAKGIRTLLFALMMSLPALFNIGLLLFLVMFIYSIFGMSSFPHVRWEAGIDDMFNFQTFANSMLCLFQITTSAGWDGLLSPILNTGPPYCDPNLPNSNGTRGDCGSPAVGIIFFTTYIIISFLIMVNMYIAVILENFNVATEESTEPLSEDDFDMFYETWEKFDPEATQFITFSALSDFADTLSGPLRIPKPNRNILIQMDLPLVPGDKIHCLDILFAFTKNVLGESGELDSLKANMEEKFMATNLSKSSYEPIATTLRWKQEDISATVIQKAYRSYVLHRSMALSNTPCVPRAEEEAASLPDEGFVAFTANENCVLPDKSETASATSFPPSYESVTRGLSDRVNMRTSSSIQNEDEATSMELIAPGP

Usually IC50 stands for the concentration that inhibits the measured activity by half. With `CS(=N)(=O)c1cc(NC(=O)c2cc(C(F)(F)F)nnc2Oc2ccc(F)cc2Cl)ccn1` (stereo not drawn) [Compound 97], the IC50 runs as follows: under setting [1], 1000 to 5000 nM; under setting [2], 1000 to 5000 nM.

`COc1cc(F)ccc1Oc1nnc(C)cc1C(=O)Nc1cccc(S(C)(=N)=O)c1` (stereo not drawn) [Compound 94, 3-(4-Fluoro-2-methoxyphenoxy)-6-methyl-N-(3-(S-methylsulfonimidoyl)phenyl)pyridazine-4-carboxamide]: the IC50 runs as follows: under setting [1], greater than 5000 nM; under setting [2], 1000 to 5000 nM.

As to `NS(=O)(=O)c1cccc(NC(=O)c2cc(C(F)(F)F)nnc2Oc2ccc(F)cc2O)c1` [Compound 131, 3-(4-Fluoro-2-hydroxyphenoxy)-N-(3-sulfamoylphenyl)-6-(trifluoromethyl)pyridazine-4-carboxamide], the IC50 runs as follows: under setting [1], 501 to 1000 nM; under setting [2], 201 to 500 nM.

In the case of `COc1cc(F)ccc1Oc1nnc(C(F)(F)F)cc1C(=O)Nc1cncc(S(C)(=O)=O)c1` [Compound 16], the IC50 is, setting by setting: under setting [1], 1000 to 5000 nM; under setting [2], 1000 to 5000 nM.

Regarding `COc1cc(F)ccc1Oc1nnc(C(F)(F)F)cc1C(=O)Nc1ccc(C(N)=O)nc1` [Compound 125, N-(6-Carbamoylpyridin-3-yl)-3-(4-fluoro-2-methoxyphenoxy)-6-(trifluoromethyl)pyridazine-4-carboxamide], the concentration for half-maximal inhibition (IC50) reads like this: under setting [1], 201 to 500 nM; under setting [2], no more than 200 nM.

On to `COc1cc(F)ccc1Oc1nnc(C(F)(F)F)cc1C(=O)Nc1cncc(C(N)=O)n1` [Compound 128, N-(6-Carbamoylpyrazin-2-yl)-3-(4-fluoro-2-methoxyphenoxy)-6-(trifluoromethyl)pyridazine-4-carboxamide], for which the IC50 reads like this: under setting [1], greater than 5000 nM; under setting [2], greater than 5000 nM.

Regarding `O=C1NCc2ccc(NC(=O)c3cc(C(F)(F)F)nnc3Oc3ccc(F)cc3Cl)cc21` [Compound 69], the IC50 is greater than 5000 nM under setting [1] and greater than 5000 nM under setting [2].

Take `Cc1cc(F)ccc1Oc1nnc(C(F)(F)F)cc1C(=O)Nc1cc[nH]c(=O)c1C` [Compound 91, 3-(4-Fluoro-2-methylphenoxy)-N-(3-methyl-2-oxo-1,2-dihydropyridin-4-yl)-6-(trifluoromethyl)pyridazine-4-carboxamide]: the IC50 under setting [1] is greater than 5000 nM and the IC50 under setting [2] was greater than 5000 nM.

As to `Cc1cc(C(=O)Nc2cccc(S(C)(=N)=O)c2)c(Oc2ccc(F)cc2C)nn1` (stereo not drawn) [Compound 93, 3-(4-Fluoro-2-methyl-phenoxy)-6-methyl-N-[3-(methylsulfonimidoyl)phenyl]pyridazine-4-carboxamide], the IC50 reads like this: under setting [1], greater than 5000 nM; under setting [2], 1000 to 5000 nM.

On to `COc1cc(F)ccc1Oc1nnc(C(F)(F)F)cc1C(=O)Nc1cccc(-c2nncn2C)c1` [Compound 38], for which the IC50 under setting [1] was in the range of 1000 to 5000 nM and the IC50 under setting [2] lay within 1000 to 5000 nM.

Take `COc1cc(F)ccc1Oc1nnc(C(F)(F)F)cc1C(=O)Nc1cccc(-n2ncnc2C)c1` [Compound 36]: the IC50 is, setting by setting: under setting [1], 501 to 1000 nM; under setting [2], 201 to 500 nM.

As for `COc1cc(F)ccc1Oc1nnc(C(F)(F)F)cc1C(=O)Nc1cccc(S(N)(=O)=O)c1` [Compound 39], the IC50 was no more than 200 nM under setting [1] and no more than 200 nM under setting [2].

`COc1ccc(F)cc1Oc1nnc(C(F)(F)F)cc1C(=O)Nc1cccc(C(N)=O)c1` [Compound 80]: the IC50 runs as follows: under setting [1], 501 to 1000 nM; under setting [2], 501 to 1000 nM.

For the compound `COc1cc(F)ccc1Oc1nnc(C(F)(F)F)cc1C(=O)Nc1cccc(S(=O)(=O)C2CC2)c1` [Compound 25], the IC50 is, setting by setting: under setting [1], no more than 200 nM; under setting [2], no more than 200 nM.

Turning to `COc1cc(NC(=O)c2cc(C(F)(F)F)nnc2Oc2ccc(F)cc2C)c(C)cn1` [Compound 29], the concentration for half-maximal inhibition (IC50) reads like this: under setting [1], greater than 5000 nM; under setting [2], greater than 5000 nM.

Consider `COc1cc(F)ccc1Oc1nnc(C(F)(F)F)cc1C(=O)Nc1cncc(S(N)(=O)=O)c1` [Compound 49], for which the IC50 is no more than 200 nM under setting [1] and no more than 200 nM under setting [2].

Take `Cc1cc(C#N)ccc1Oc1nnc(C(F)(F)F)cc1C(=O)Nc1cccc(S(C)(=N)=O)c1` (stereo not drawn) [Compound 114, 3-(4-Cyano-2-methylphenoxy)-N-(3-(S-methylsulfonimidoyl)phenyl)-6-(trifluoromethyl)pyridazine-4-carboxamide]: the IC50 under setting [1] is no more than 200 nM and the IC50 under setting [2] is no more than 200 nM.

As to `Cc1cc(F)ccc1Oc1nnc(C(F)(F)F)cc1C(=O)Nc1ccc(C)c(S(C)(=O)=O)c1` [Compound 106, 3-(4-Fluoro-2-methylphenoxy)-N-(4-methyl-3-(methylsulfonyl)phenyl)-6-(trifluoromethyl)pyridazine-4-carboxamide], the half-inhibitory concentration (IC50) runs as follows: under setting [1], 201 to 500 nM; under setting [2], 201 to 500 nM.

In the case of `COc1ccc(F)cc1Oc1nnc(C(F)(F)F)cc1C(=O)Nc1cccc(S(C)(=O)=O)c1` [Compound 81], the IC50 was in the range of 1000 to 5000 nM under setting [1] and 201 to 500 nM under setting [2].

With `COc1cc(F)ccc1Oc1nnc(C)cc1C(=O)Nc1cccc([S+](C)[O-])c1` (stereo not drawn) [Compound 105], the IC50 runs as follows: under setting [1], greater than 5000 nM; under setting [2], greater than 5000 nM.

Turning to `CCOc1cc(F)ccc1Oc1nnc(C)cc1C(=O)Nc1cccc(S(C)(=O)=O)c1` [Compound 108], the IC50 is greater than 5000 nM under setting [1] and greater than 5000 nM under setting [2].

For the compound `Cc1cc(Br)ccc1Oc1nnc(C(F)(F)F)cc1C(=O)Nc1cccc(S(C)(=O)=O)c1` [Compound 82], the IC50 is no more than 200 nM under setting [1] and no more than 200 nM under setting [2].

Consider `COc1cc(NC(=O)c2cc(C(F)(F)F)nnc2Oc2ccc(F)cc2Cl)ccn1` [Compound 67], for which the IC50 is, setting by setting: under setting [1], greater than 5000 nM; under setting [2], greater than 5000 nM.

For `O=C(Nc1cc[nH]c(=O)c1)c1cc(C(F)(F)F)nnc1Oc1ccc(F)cc1Cl` [Compound 89, 3-(2-Chloro-4-fluorophenoxy)-N-(2-oxo-1,2-dihydropyridin-4-yl)-6-(trifluoromethyl)pyridazine-4-carboxamide], the IC50 is, setting by setting: under setting [1], 1000 to 5000 nM; under setting [2], 1000 to 5000 nM.

As to `O=C(Nc1ccc[n+]([O-])c1)c1cc(C(F)(F)F)nnc1Oc1ccc(F)cc1F` [Compound 60, 3-(3-(2,4-Difluorophenoxy)-6-(trifluoromethyl)pyridazine-4-carboxamido) pyridine 1-oxide], the IC50 under setting [1] lay within 1000 to 5000 nM and the half-inhibitory concentration (IC50) under setting [2] was 1000 to 5000 nM.

In the case of `Cc1cc(F)ccc1Oc1nnc(C(F)(F)F)cc1C(=O)Nc1cccc(S(N)(=O)=O)c1` [Compound 51], the IC50 runs as follows: under setting [1], no more than 200 nM; under setting [2], no more than 200 nM.

With `Cc1cc(F)ccc1Oc1nnc(C(F)(F)F)cc1C(=O)Nc1cccc2nncn12` [Compound 134, 3-(4-Fluoro-2-methyl-phenoxy)-N-([1,2,4]triazolo[4,3-a]pyridin-5-yl)-6-(trifluoromethyl)pyridazine-4-carboxamide], the IC50 is, setting by setting: under setting [1], greater than 5000 nM; under setting [2], greater than 5000 nM.

Consider `Cc1cc(Br)ccc1Oc1nnc(C(F)(F)F)cc1C(=O)Nc1ccc(C(N)=O)cc1` [Compound 83], for which the IC50 is, setting by setting: under setting [1], no more than 200 nM; under setting [2], no more than 200 nM.

Take `COc1cc(F)ccc1Oc1nnc(C(F)(F)F)cc1C(=O)Nc1ccnc(C(N)=O)c1` [Compound 126, N-(2-Carbamoylpyridin-4-yl)-3-(4-fluoro-2-methoxyphenoxy)-6-(trifluoromethyl)pyridazine-4-carboxamide]: the IC50 runs as follows: under setting [1], no more than 200 nM; under setting [2], no more than 200 nM.

Regarding `Cc1cc(F)ccc1Oc1nnc(C(F)(F)F)cc1C(=O)Nc1ccc(=O)[nH]c1C` [Compound 92, 3-(4-Fluoro-2-methylphenoxy)-N-(2-methyl-6-oxo-1,6-dihydropyridin-3-yl)-6-(trifluoromethyl)pyridazine-4-carboxamide], the IC50 reads like this: under setting [1], greater than 5000 nM; under setting [2], greater than 5000 nM.

Consider `CS(=N)(=O)c1cccc(NC(=O)c2cc(C(F)(F)F)nnc2Oc2ccc(F)cc2Cl)c1` (stereo not drawn) [Compound 96, 3-(2-Chloro-4-fluorophenoxy)-N-(3-(S-methylsulfonimidoyl)phenyl)-6-(trifluoromethyl)pyridazine-4-carboxamide], for which the half-maximal inhibitory concentration (IC50) was 501 to 1000 nM under setting [1] and 201 to 500 nM under setting [2].

With `COc1cc(F)ccc1Oc1nnc(C(F)(F)F)cc1C(=O)Nc1cccc(S2(=O)=NCCC2)c1` (stereo not drawn) [Compound 45], the IC50 under setting [1] fell in the range of 201 to 500 nM and the IC50 under setting [2] is 201 to 500 nM.

Regarding `Cc1cc(F)ccc1Oc1nnc(C(F)(F)F)cc1C(=O)Nc1ccc(S(N)(=O)=O)cc1` [Compound 48], the IC50 reads like this: under setting [1], 1000 to 5000 nM; under setting [2], 501 to 1000 nM.
